Holding throughout (test): NCI anticancer screen, dose series, 48 h
The test system of test [1] is MDA-N.
In test [2] the test system is RXF 393.
Test [3] has as its system UACC-257.
For test [4], the system named is MDA-MB-435.
Test [5] deals with HT-29.
Test [6] relates to TK-10.
Test [7] relates to 786-0.
Test [8] deals with MDA-MB-231.
The test system of test [9] is M14.
Test [10] concerns BT-549.
In test [11] the test system is IGROV-1.
The test system of test [12] is NCI-H226.
For test [13], the system named is COLO 205.
In test [14] the test system is NCI/ADR-RES.
Test [15] has as its system A549.
Test [16] deals with A498.
Test [17] concerns UACC-62.
Test [18] deals with SNB-19.
The test system of test [19] is OVCAR-4.

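The compound was tested at five concentrations on cells cultured in 96-well plates, with a 48-hour exposure period. GI50 marks 50% less growth.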 Calls of active or inactive are those of the source. No stated cut-off is given here; in the data, active = GI50 up to about 1.1 µM and inactive = higher. A value given as a limit tells only on which side of the number the result lay.

Turning to `COc1ccc2c(c1)/C(=C\c1c(Cl)[nH]c3ccccc13)C(=O)N2`, the GI50 is 1.75 µM (inactive) in test [1]; 2.88 µM (inactive) in test [2]; 6.14 µM (inactive) in [3]; 1.91 µM (inactive) in test [4]; 2.14 µM (inactive) in [5]; 6.9 µM (inactive) in [6]. Besides, the GI50 in test [7] is 4.49 µM (inactive); in [8] it was 4.47 µM (inactive); in test [9] it was 4.08 µM (inactive); in test [10], 3.3 µM (inactive); in test [11], 1.21 µM (inactive); in [12], 16.2 µM (inactive). Besides, the GI50 in test [13] is 2.27 µM (inactive); in test [14], 2.81 µM (inactive); in test [15], 4.99 µM (inactive); in test [16], 8 µM (inactive); in [17], 5.16 µM (inactive); in test [18], 6.62 µM (inactive).
Regarding `O=C(Nc1ccc2c(c1)oc(=O)c1ccccc12)C(Cl)Cl`, the GI50 was > 100 µM (inactive) in test [1]; > 100 µM (inactive) in [2]; > 100 µM (inactive) in [3]; > 100 µM (inactive) in test [4]; 28.1 µM (inactive) in test [5]; > 100 µM (inactive) in test [7]. Also, the GI50 in [8] is > 100 µM (inactive); in [9], > 100 µM (inactive); in [10], > 100 µM (inactive); in [11], > 100 µM (inactive); in test [12], > 100 µM (inactive); in test [13] it was 66.2 µM (inactive). Also, the GI50 in test [14] was > 100 µM (inactive); in test [15] it was 39.1 µM (inactive); in [16] it was > 100 µM (inactive); in test [17], 36.6 µM (inactive); in [19] it was > 10 µM (inactive); in [18], 27.3 µM (inactive).
Regarding `COc1cc([C@@]23OC[C@@H]4[C@@H](OC[C@@H]42)c2cc4c(cc23)OCO4)cc(OC)c1OC`, the GI50 was < 0.01 µM (active) in [1]; 0.873 µM (active) in [2]; < 0.01 µM (active) in test [3]; < 0.01 µM (active) in test [4]; < 0.01 µM (active) in test [5]; < 0.01 µM (active) in test [7]. Moreover, the GI50 in test [8] was < 0.01 µM (active); in test [9], < 0.01 µM (active); in test [10], < 0.0304 µM (active); in test [11] it was < 0.01 µM (active); in test [12] it was < 0.01 µM (active); in [13], < 0.01 µM (active). Besides, the GI50 in test [14] was < 0.01 µM (active); in test [15] it was < 0.01 µM (active); in [16], < 0.01 µM (active); in [17] it was < 0.01 µM (active); in test [19], 5.19 µM (inactive); in [18] it was < 0.01 µM (active).
With `Cc1sc2nc(-c3cccc([N+](=O)[O-])c3)c(/C=N/N=C(N)N)n2c1C`, the GI50 was 1.77 µM (inactive) in test [1]; 1.66 µM (inactive) in [2]; 1.67 µM (inactive) in test [3]; 1.79 µM (inactive) in test [4]; 1.62 µM (inactive) in test [5]; 1.51 µM (inactive) in test [6]. The GI50 was 1.83 µM (inactive) in [7]; 1.75 µM (inactive) in test [8]; 1.6 µM (inactive) in [9]; 1.5 µM (inactive) in test [10]; 1.32 µM (inactive) in test [11]; 1.82 µM (inactive) in test [12]. Moreover, the GI50 was 1.83 µM (inactive) in [13]; 8.13 µM (inactive) in test [14]; 1.66 µM (inactive) in test [15]; 1.55 µM (inactive) in test [16]; 1.75 µM (inactive) in test [17]; 1.76 µM (inactive) in test [18].

The values above are taken from ChEMBL document CHEMBL1201862, “PubChem BioAssay data set” (2004).
